# Measured values reported in patent US20250136619A1, “HETEROBIFUNCTIONAL COMPOUNDS AND THEIR USE IN TREATING DISEASE” (HALDA THERAPEUTICS OPCO, INC., priority 2021, published 2025).
# Like-named read-outs stand apart in the source and are kept apart here.
# Legend:
# CDK9 = CDK9 (Homo sapiens (Human), UniProt P50750); assay: KdELECT assay for binding affinity to CDK9
# Method: (§1) Compounds were tested using a KdELECT. Kinase-tagged T7 phage strains were prepared in an E. coli host derived from the BL21 strain. E. coli were grown to log-phase and infected with T7 phage and incubated with shaking at 32° C. until lysis. The lysates were centrifuged and filtered to remove cell debris. The remaining kinases were produced in HEK-293 cells and subsequently tagged with DNA for qPCR detection. Streptavidin-coated magnetic beads were treated with biotinylated small molecule ligands for 30 minutes at room temperature to generate affinity resins for kinase assays. The liganded beads were blocked with excess biotin and washed with blocking buffer (SeaBlock (Pierce), 1% BSA, 0.05% Tween 20, 1 mM DTT) to remove unbound ligand and to reduce non-specific binding. Binding reactions were assembled by combining kinases, liganded affinity beads, and test compounds in 1×binding buffer (20% SeaBlock, 0.17×PBS, 0.05% Tween 20, 6 mM DTT). Test compounds were prepared as 111X stocks in 100% DMSO. Kd values were determined using an 11-point 3-fold compound dilution series with three DMSO control points. All compounds for Kd measurements are distributed by acoustic transfer (non-contact dispensing) in 100% DMSO. The compounds were then diluted directly into the assays such that the final concentration of DMSO was 0.9%. All reactions performed in polypropylene 384-well plate. Each was a final volume of 0.02 mL. The assay plates were incubated at room temperature with shaking for 1 hour and the affinity beads were washed with wash buffer (1×PBS, 0.05% Tween 20). The beads were then re-suspended in elution buffer (1×PBS, 0.05% Tween 20, 0.5 μM nonbiotinylated affinity ligand) and incubated at room temperature with shaking for 30 minutes. The kinase concentration in the eluates was measured by qPCR.
# HEK293 cells = assay: Cellular growth inhibition assay (CellTiter-Glo), HEK293 cells; format: cell-based; settings: read-out: CTG HEK293 GI50
# Method: (§2) HEK293 and HeLa cells were cultured in DMEM medium supplemented with 10% fetal bovine serum and 1% Penn/Strep. Cells were seeded in white 384-well plates at 500 cells/well in […] complete medium. Following seeding, plates were spun at 300×g for three minutes and cultured at 37° C. with 5% CO2 in a humidified tissue culture incubator.
# (§3) After 24 hours, compounds were titrated in 100% DMSO and diluted in complete cell culture medium. […] of compound/media mixture was added to cells to bring total volume in well to […]. DMSO alone was used as a negative control. Plates were then spun at 300×g for three minutes and stored at 37° C. with 5% CO2 for three days.
# (§4) On Day 0 and Day 3 of compound treatment, cell viability was quantified with CellTiter-Glo 2.0 reagent (Promega). After equilibrating microplates at room temperature for 30 minutes, 25 μL CellTiter-Glo 2.0 reagent was dispensed into each well to bring total volume to […]. Plates were mixed on shaker for 2 minutes at 500 rpm, followed by a 10-minute incubation at room temperature. Following a quick spin, luminescence readings were measured with an En Vision Plate Reader. Data was normalized to DMSO treated Day 0 and Day 3 readings. A four-parameter non-linear regression curve fit was applied to dose-response data in GraphPad Prism data analysis software to determine the half maximal growth inhibitory concentration (GI50) for each compound.
# HeLa cells = assay: Cellular growth inhibition assay (CellTiter-Glo), HeLa cells; format: cell-based; settings: read-out: CTG HELA GI50
# Method: as §2, §3, §4
# BTK = BTK (Homo sapiens (Human), UniProt Q06187); assay: KdELECT assay for binding affinity to BTK
# Method: as §1, with “KdELECT assay.” for “KdELECT.”, “1× binding” for “1×binding”
# [1] = Homo sapiens, 72 h, HEK293 cells, three days of compound treatment, CellTiter-Glo 2.0
# [2] = Homo sapiens, 72 h, HeLa cells, three days of compound treatment, CellTiter-Glo 2.0
# Chain of CDK9 (P50750 whole entry): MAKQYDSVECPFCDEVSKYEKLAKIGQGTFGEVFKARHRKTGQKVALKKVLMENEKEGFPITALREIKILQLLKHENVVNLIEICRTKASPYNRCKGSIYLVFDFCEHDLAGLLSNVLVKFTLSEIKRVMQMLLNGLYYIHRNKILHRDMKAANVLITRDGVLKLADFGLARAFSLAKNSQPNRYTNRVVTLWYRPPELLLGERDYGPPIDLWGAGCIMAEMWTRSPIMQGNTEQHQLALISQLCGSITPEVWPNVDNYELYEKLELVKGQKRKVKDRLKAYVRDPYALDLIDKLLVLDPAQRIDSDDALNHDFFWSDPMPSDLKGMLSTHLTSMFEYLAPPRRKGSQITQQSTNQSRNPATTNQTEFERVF
# Chain of BTK (Q06187 whole entry): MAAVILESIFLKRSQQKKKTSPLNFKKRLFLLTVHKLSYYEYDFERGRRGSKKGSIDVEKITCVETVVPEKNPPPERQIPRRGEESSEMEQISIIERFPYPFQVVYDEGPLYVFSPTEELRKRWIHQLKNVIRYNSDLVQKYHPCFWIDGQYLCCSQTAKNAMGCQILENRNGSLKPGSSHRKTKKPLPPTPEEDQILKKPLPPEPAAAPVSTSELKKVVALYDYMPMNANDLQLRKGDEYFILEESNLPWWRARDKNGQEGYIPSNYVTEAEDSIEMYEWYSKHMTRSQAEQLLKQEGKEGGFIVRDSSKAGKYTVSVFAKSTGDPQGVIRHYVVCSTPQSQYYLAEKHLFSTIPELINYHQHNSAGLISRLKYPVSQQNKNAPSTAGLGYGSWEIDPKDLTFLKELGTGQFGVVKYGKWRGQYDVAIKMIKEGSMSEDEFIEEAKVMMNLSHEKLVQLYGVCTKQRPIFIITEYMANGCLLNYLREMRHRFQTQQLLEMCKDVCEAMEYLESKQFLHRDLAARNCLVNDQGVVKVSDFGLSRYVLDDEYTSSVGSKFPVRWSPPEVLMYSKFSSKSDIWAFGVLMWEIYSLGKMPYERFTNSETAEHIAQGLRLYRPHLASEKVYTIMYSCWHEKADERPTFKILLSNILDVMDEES
Structure (SMILES),Kd (CDK9) [nM],GI50 (HeLa cells; [2]) [nM],GI50 (HEK293 cells; [1]) [nM],also measured
C=CC(=O)N1CCN([C@@H](CC2CC2)c2ccc([C@H](C)Nc3ncc4c(n3)N(CCOCCOCCOCCOCCOCCOCCn3cc(CNc5cc(N6CCCC[C@H]6CCO)nc6c(CC)cnn56)ccc3=O)C(=O)OC4)cc2)CC1 [Compound I-87],< 50,,,
C=CC(=O)N1CCN([C@@H](CC2CC2)c2ccc([C@H](C)Nc3ncc4c(n3)N(CCOCCOCCn3cc(CNc5cc(N6CCCC[C@H]6CCO)nc6c(CC)cnn56)ccc3=O)C(=O)OC4)cc2)CC1 [Compound I-56],50 to 500,,,
C=CC(=O)N1CCN([C@@H](CC2CC2)c2ccc([C@H](C)Nc3ncc4c(n3)N(CCOCCOCCOCCOCCOCCOCCOc3ccc(CNc5cc(N6CCCC[C@H]6CCO)nc6c(CC)cnn56)cn3)C(=O)OC4)cc2)CC1 [Compound I-83],< 50,,,
"CCc1cnn2c(NCc3ccc(OCC(=O)N4CC(=O)N(c5cc(C#N)ccn5)[C@H](C(=O)N(c5cc(F)cc(F)c5)[C@H](C(=O)NC5CC(F)(F)C5)c5ccccc5Cl)C4)nc3)cc(N3CCCC[C@H]3CCO)nc12 [Compound I-96, (2S)—N-[(1S)-1-(2-chlorophenyl)-2-[(3,3-difluorocyclobutyl)amino]-2-oxo-ethyl]-1-(4-cyano-2-pyridyl)-N-(3,5-difluorophenyl)-4-[2-[[5-[[[3-ethyl-5-[(2S)-2-(2-hydroxyethyl)-1-piperidyl]pyrazolo[1,5-a]pyrimidin-7-yl]amino]methyl]-2-pyridyl]oxy]acetyl]-6-oxo-piperazine-2-carboxamide]",50 to 500,< 500,< 500,
"CCc1cnn2c(NCc3ccc(OCCOCCOCC(=O)N4CC(=O)N(c5cc(C#N)ccn5)[C@H](C(=O)N(c5cc(F)cc(F)c5)[C@H](C(=O)NC5CC(F)(F)C5)c5ccccc5Cl)C4)nc3)cc(N3CCCC[C@H]3CCO)nc12 [Compound I-97, (2S)—N-[(1S)-1-(2-chlorophenyl)-2-[(3,3-difluorocyclobutyl)amino]-2-oxo-ethyl]-1-(4-cyano-2-pyridyl)-N-(3,5-difluorophenyl)-4-[2-[2-[2-[[5-[[[3-ethyl-5-[(2S)-2-(2-hydroxyethyl)-1-piperidyl]pyrazolo[1,5-a]pyrimidin-7-yl]amino]methyl]-2-pyridyl]oxy]ethoxy]ethoxy]acetyl]-6-oxo-piperazine-2-carboxamide]",50 to 500,,,"GI50 (HEK293 cells; Homo sapiens, HEK293, 72 h): < 500 nM; GI50 (HeLa cells; Homo sapiens, HeLa, 72 h): < 500 nM"

# Continued, in another order:
Kd (CDK9) [nM],GI50 (HeLa cells; [2]) [nM],Structure (SMILES),GI50 (HEK293 cells; [1]) [nM],also measured
50 to 500,< 500,"CCc1cnn2c(NCc3ccc(OCCOCCOCCOCCOCC(=O)N4CC(=O)N(c5cc(C#N)ccn5)[C@H](C(=O)N(c5cc(F)cc(F)c5)C(C(=O)NC5CC(F)(F)C5)c5ccccc5Cl)C4)nc3)cc(N3CCCC[C@H]3CCO)nc12 (stereo partly drawn) [Compound I-98, (2S)—N-[1-(2-chlorophenyl)-2-[(3,3-difluorocyclobutyl)amino]-2-oxo-ethyl]-1-(4-cyano-2-pyridyl)-N-(3,5-difluorophenyl)-4-[2-[2-[2-[2-[2-[[5-[[[3-ethyl-5-[(2S)-2-(2-hydroxyethyl)-1-piperidyl]pyrazolo[1,5-a]pyrimidin-7-yl]amino]methyl]-2-pyridyl]oxy]ethoxy]ethoxy]ethoxy]ethoxy]acetyl]-6-oxo-piperazine-2-carboxamide]",< 500,
500 to 2500,,"NC(=O)c1c(F)cccc1Nc1nc(Nc2ccc(S(=O)(=O)NCCOCCOCCOC3CCN(C/C=C/C(=O)N4CCC[C@@H](n5nc(-c6ccc(Oc7ccccc7)cc6)c6c(N)ncnc65)C4)CC3)cc2)ncc1Br [Compound I-68, 2-[[2-[4-[2-[2-[2-[[1-[(E)-4-[(3R)-3-[4-amino-3-(4-phenoxyphenyl)pyrazolo[3,4-d]pyrimidin-1-yl]-1-piperidyl]-4-oxo-but-2-enyl]-4-piperidyl]oxy]ethoxy]ethoxy]ethylsulfamoyl]anilino]-5-bromo-pyrimidin-4-yl]amino]-6-fluoro-benzamide]",,Kd (BTK): < 50 nM
50 to 500,,C=CC(=O)N1CCN([C@@H](CC2CC2)c2ccc([C@H](C)Nc3ncc4c(n3)N(CCOCCOCCOc3ccc(CNc5cc(N6CCCC[C@H]6CCO)nc6c(CC)cnn56)cn3)C(=O)OC4)cc2)CC1 [Compound I-55],,
500 to 2500,,CCc1cnn2c(NCc3ccc(OCCOCCOCCNS(=O)(=O)c4cc(F)cc(N(C(=O)[C@@H]5CCC(=O)N5c5cc(C#N)ccn5)C(C(=O)NC5CC(F)(F)C5)c5ccccc5Cl)c4)nc3)cc(N3CCCC[C@H]3CCO)nc12 (stereo partly shown) [Compound I-92],,"GI50 (HEK293 cells; HEK293 cells, three days of compound treatment, CellTiter-Glo 2.0): < 500 nM; GI50 (HeLa cells; HeLa cells, three days of compound treatment, CellTiter-Glo 2.0): < 500 nM"
500 to 2500,,"C=CC(=O)N1CCN([C@@H](CC2CC2)c2ccc([C@H](C)Nc3ncc4c(n3)N(CCOCCOCCOCCOCCOCCOCCNS(=O)(=O)c3ccc(Nc5ncc(Br)c(Nc6cccc(F)c6C(N)=O)n5)cc3)C(=O)OC4)cc2)CC1 [Compound I-86, 2-[[5-bromo-2-[4-[2-[2-[2-[2-[2-[2-[2-[7-[[(1S)-1-[4-[(1S)-2-cyclopropyl-1-(4-prop-2-enoylpiperazin-1-yl)ethyl]phenyl]ethyl]amino]-2-oxo-4H-pyrimido[4,5-d][1,3]oxazin-1-yl]ethoxy]ethoxy]ethoxy]ethoxy]ethoxy]ethoxy]ethylsulfamoyl]anilino]pyrimidin-4-yl]amino]-6-fluoro-benzamide]",,
500 to 2500,1500 to 5000,"CCc1cnn2c(NCc3ccc(=O)n(CCOCCOCCNS(=O)(=O)c4cc(F)cc(N(C(=O)[C@@H]5CCC(=O)N5c5cc(C#N)ccn5)C(C(=O)NC5CC(F)(F)C5)c5ccccc5Cl)c4)c3)cc(N3CCCC[C@H]3CCO)nc12 (stereo partly drawn) [Compound I-93, (2S)—N-[1-(2-chlorophenyl)-2-[(3,3-difluorocyclobutyl)amino]-2-oxo-ethyl]-1-(4-cyano-2-pyridyl)-N-[3-[2-[2-[2-[5-[ [[3-ethyl-5-[(2S)-2-(2-hydroxyethyl)-1-piperidyl]pyrazolo[1,5-a]pyrimidin-7-yl]amino]methyl]-2-oxo-1-pyridyl]ethoxy]ethoxy]ethylsulfamoyl]-5-fluoro-phenyl]-5-oxo-pyrrolidine-2-carboxamide]",> 5000,
,1500 to 5000,CCc1cnn2c(NCc3ccc(OCCOCCOCCOCCOCCOCCOCCOCCOCCN(C)C/C=C/C(=O)N4CCC[C@@H](n5nc(-c6ccc(Oc7ccccc7)cc6)c6c(N)ncnc65)C4)nc3)cc(N3CCCC[C@H]3CCO)nc12 [Compound I-48],1500 to 5000,Kd (BTK): < 50 nM
